SMILES strings stand for the structures. “And” between values parts separate entries of the source, which are not always exact repeats. Equal values may be shown once.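 A five-concentration, 48-hour dose response in 96-well plates underlies each endpoint, interpolated linearly between surrounding concentrations. Here, GI50 denotes the concentration required for 50% inhibition of growth. TGI: total growth inhibition.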

Data on twelve compounds can be found in PubChem BioAssay (NCI).

Test systems include U251 CNS; NCI-H522 lung; SK-OV-3 ovarian; OVCAR-5 ovarian; IGROV1 ovarian; UACC-62 melanoma; TK-10 renal; A549 NSCLC; SF-295 CNS; CAKI-1 renal.
What all share (test): growth of human tumour cells (NCI), 48 h

Regarding `CCN1CCC(O)(c2ccc(Cl)cc2)C(C(=O)c2ccc(Cl)cc2)C1` (stereo not given), the TGI is over 100 µM in the experiment with U251 CNS; 41.9 µM in the experiment with NCI-H522 lung; over 100 µM with SK-OV-3 ovarian; over 100 µM in the experiment on OVCAR-5 ovarian; over 100 µM in the experiment with IGROV1 ovarian; over 100 µM in the experiment on UACC-62 melanoma. The TGI with TK-10 renal, in the experiment with A549 NSCLC and in the experiment on SF-295 CNS was over 100 µM throughout.

As to `COC(=O)[C@@H](C)C[C@H](Cc1ccccc1)NC(=O)c1csc([C@@H](C[C@H](C(C)C)N(C)C(=O)[C@@H](NC(=O)[C@H]2CCCCN2C)C2CC2)OC(C)=O)n1`, the GI50 in the experiment with U251 CNS was 0.457 nM and 1.65 nM; in the experiment with NCI-H522 lung, 0.000247 µM and < 0.00165 µM; with SK-OV-3 ovarian, 0.604 nM and 1.65 nM; with OVCAR-5 ovarian, 3.84 nM and 6.04 nM; in the experiment with IGROV1 ovarian it was 1.04 nM and 1.65 nM; with CAKI-1 renal, 0.00577 µM. For the same compound, the GI50 with A549 NSCLC was 2.7 nM and 1.65 nM; with SF-295 CNS, 0.345 nM. Moreover, the TGI in the experiment with U251 CNS was over 16.5 µM; in the experiment on NCI-H522 lung it was 0.000988 µM and < 0.00165 µM; with SK-OV-3 ovarian, over 16.5 µM; in the experiment with OVCAR-5 ovarian, over 16.5 µM; with IGROV1 ovarian, over 16.5 µM; in the experiment with UACC-62 melanoma, over 16.5 µM. Besides, the TGI with A549 NSCLC is over 16.5 µM; with SF-295 CNS, 0.00369 µM.

Consider `CCOC(=O)c1[nH]c(COC(C)=O)c2c1CCCCCCCCCC2`, for which the TGI in the experiment on U251 CNS, in the experiment on NCI-H522 lung, in the experiment on SK-OV-3 ovarian, in the experiment on OVCAR-5 ovarian, in the experiment on IGROV1 ovarian and in the experiment with UACC-62 melanoma was over 100 µM in each case. The TGI in the experiment on CAKI-1 renal, in the experiment with TK-10 renal, with A549 NSCLC and with SF-295 CNS was over 100 µM throughout.

With `O=C1C(=O)c2cccnc2-c2ncccc21`, the GI50 was 131 nM with U251 CNS; 0.126 µM with NCI-H522 lung; 1160 nM with SK-OV-3 ovarian; 328 nM in the experiment on OVCAR-5 ovarian; 133 nM with IGROV1 ovarian; 201 nM with UACC-62 melanoma. The GI50 was 0.605 µM in the experiment with CAKI-1 renal, 1.24 µM in the experiment with TK-10 renal, 1040 nM in the experiment on A549 NSCLC and 295 nM in the experiment on SF-295 CNS. Besides, the TGI with U251 CNS was found to be 0.674 µM; in the experiment on NCI-H522 lung, 0.332 µM; in the experiment with SK-OV-3 ovarian it was 2.98 µM; in the experiment on OVCAR-5 ovarian, 1.29 µM; with IGROV1 ovarian, 0.413 µM; in the experiment on UACC-62 melanoma it was 0.514 µM. The TGI with CAKI-1 renal amounted to 1.92 µM; with TK-10 renal, 2.6 µM; in the experiment with A549 NSCLC, 2.8 µM; in the experiment on SF-295 CNS, 0.946 µM.

For the compound `CCN(CC)c1ccc(N=Nc2ccc(-c3nc4ccc[n+](C)c4o3)cc2)cc1`, the TGI stood at 16.6 µM in the experiment with U251 CNS; 18.5 µM in the experiment on NCI-H522 lung; 34.1 µM in the experiment with SK-OV-3 ovarian; 16.3 µM with OVCAR-5 ovarian; 30.8 µM with IGROV1 ovarian; 22.6 µM with UACC-62 melanoma. In addition, the TGI in the experiment on CAKI-1 renal was found to be 26.3 µM; in the experiment with TK-10 renal it was 24.7 µM; with A549 NSCLC it was 27.1 µM; in the experiment with SF-295 CNS it was 27.9 µM.

On to `S=P(N1CC1)(N1CC1)N1CC1`, for which the GI50 with NCI-H522 lung is 15 µM and 125 µM; in the experiment with SK-OV-3 ovarian it was 16000 nM and 143000 nM; in the experiment on IGROV1 ovarian it was 38800 nM and 280000 nM; in the experiment with CAKI-1 renal it was 6.08 µM and 20 µM; in the experiment with TK-10 renal, 44.5 µM and 127 µM; with A549 NSCLC, 10200 nM and 84000 nM. In addition, in the experiment on SF-295 CNS, the GI50 is 6780 nM. For the same compound, the TGI in the experiment on NCI-H522 lung is 33.6 µM and 273 µM and 329 µM; in the experiment with SK-OV-3 ovarian, 47.2 µM and 406 µM and 296 µM; with IGROV1 ovarian, 77.2 µM and 361 µM and 507 µM; in the experiment with TK-10 renal, > 95.3 µM and 877 µM and 522 µM.

For the compound `C=CC(Cl)(CBr)CCC(Br)C(C)(C)Cl` (stereo not given), the TGI in the experiment on U251 CNS is 27.4 µM; with NCI-H522 lung, 24.4 µM; with SK-OV-3 ovarian it was over 100 µM; in the experiment on OVCAR-5 ovarian, 31.1 µM; in the experiment on IGROV1 ovarian it was 26.3 µM; in the experiment on UACC-62 melanoma, 30.5 µM. For the same compound, the TGI in the experiment on TK-10 renal worked out at 38.6 µM; with A549 NSCLC, 89.3 µM; with SF-295 CNS, 28.8 µM.

`Cn1cc(C(=O)C[n+]2ccccc2)c2ccccc21`: the TGI with NCI-H522 lung, in the experiment on IGROV1 ovarian, in the experiment with UACC-62 melanoma, with CAKI-1 renal, with TK-10 renal and in the experiment with A549 NSCLC was over 100 µM each time. For the same compound, the TGI in the experiment on SF-295 CNS was over 100 µM.

Turning to `COc1ccc(OCC(=O)O)c(C(=O)CCC(=O)O)c1`, the TGI with U251 CNS was over 100 µM; with NCI-H522 lung, over 100 µM; in the experiment on SK-OV-3 ovarian it was over 100 µM; in the experiment on OVCAR-5 ovarian, over 100 µM; in the experiment on IGROV1 ovarian, over 100 µM; with UACC-62 melanoma, over 10 µM. Further, the TGI with TK-10 renal, in the experiment on A549 NSCLC and with SF-295 CNS was over 100 µM each time.

With `CC1(C)C2C=CC1C(=O)CC2` (stereo not given), the TGI in the experiment on U251 CNS, in the experiment on NCI-H522 lung, in the experiment on OVCAR-5 ovarian, with CAKI-1 renal, in the experiment with TK-10 renal and in the experiment on A549 NSCLC was over 100 µM in each case. Moreover, the TGI in the experiment on SF-295 CNS is over 100 µM.

Consider `CC(=O)OCC1OC(n2c(-c3ccc(C)cc3)cc(-c3ccccc3)c(C#N)c2=O)C(OC(C)=O)C(OC(C)=O)C1OC(C)=O` (stereo not given), for which the TGI with U251 CNS, with NCI-H522 lung, with SK-OV-3 ovarian, in the experiment with OVCAR-5 ovarian, with IGROV1 ovarian and in the experiment on UACC-62 melanoma was over 100 µM each time. Further, the TGI in the experiment with CAKI-1 renal, in the experiment on TK-10 renal and with A549 NSCLC was over 100 µM throughout.

Take `COc1cc(-c2nc(SCCC(C)C)nc(Nc3ccc(S(N)(=O)=O)cc3)c2C#N)cc(OC)c1OC`: the GI50 in the experiment with U251 CNS was 3170 nM; with NCI-H522 lung, 3.52 µM; with OVCAR-5 ovarian, 3840 nM; in the experiment with IGROV1 ovarian it was 3390 nM; with UACC-62 melanoma, 3000 nM; in the experiment on CAKI-1 renal, 4 µM. Also, the GI50 in the experiment with TK-10 renal was 3.5 µM; with A549 NSCLC, 3460 nM; with SF-295 CNS, 2710 nM. Further, the TGI in the experiment on U251 CNS was over 100 µM; in the experiment on NCI-H522 lung it was over 100 µM; in the experiment with OVCAR-5 ovarian, over 100 µM; with IGROV1 ovarian, over 100 µM; in the experiment with UACC-62 melanoma, 22.9 µM; with CAKI-1 renal, over 100 µM. The TGI with TK-10 renal is over 100 µM; in the experiment with A549 NSCLC, over 100 µM; in the experiment with SF-295 CNS it was 7.35 µM.
